No end group written: not given here.

Mcl-1, sequence (Q07820 whole entry): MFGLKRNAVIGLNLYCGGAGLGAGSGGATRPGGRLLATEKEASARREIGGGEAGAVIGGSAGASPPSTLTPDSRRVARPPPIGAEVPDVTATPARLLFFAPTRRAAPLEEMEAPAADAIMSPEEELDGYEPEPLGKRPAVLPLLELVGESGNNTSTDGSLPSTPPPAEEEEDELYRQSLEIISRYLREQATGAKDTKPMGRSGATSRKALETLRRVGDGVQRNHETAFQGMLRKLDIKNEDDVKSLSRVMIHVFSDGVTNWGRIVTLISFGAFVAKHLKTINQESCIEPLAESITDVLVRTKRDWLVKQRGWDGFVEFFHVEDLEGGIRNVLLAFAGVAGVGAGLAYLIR
BHRF1, sequence (P03182 whole entry): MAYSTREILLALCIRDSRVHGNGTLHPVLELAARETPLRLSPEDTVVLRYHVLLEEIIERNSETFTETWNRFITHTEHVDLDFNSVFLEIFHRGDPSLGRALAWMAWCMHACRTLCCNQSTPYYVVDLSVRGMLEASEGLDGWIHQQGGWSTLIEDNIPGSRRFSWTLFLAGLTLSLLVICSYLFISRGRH
KSBcl-2, sequence (F5HGJ3 whole entry): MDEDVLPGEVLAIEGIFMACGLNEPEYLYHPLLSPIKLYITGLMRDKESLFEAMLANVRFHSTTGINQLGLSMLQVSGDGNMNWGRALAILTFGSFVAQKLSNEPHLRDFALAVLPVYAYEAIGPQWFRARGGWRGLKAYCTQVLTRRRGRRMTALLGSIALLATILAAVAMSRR

The first experiment concerns the target BHRF1 (Epstein-Barr virus, UniProt P03182). The experiment can be described thus: biochemical. Format: binding, Epstein-Barr herpesvirus (EBV).
What is called Kd is the constant that tells how readily two partners part at equilibrium. In turn, “RPIIWIGQEISRVGDRENAYKAR-NH2 [BL6-22_Y4eK]” came in with a Kd of 30 ± 17 nM.
RPNIWLTQRLQRTGDGLNAYYAR-NH2 [KScomp]: the equilibrium dissociation constant (Kd) was more than 1000 nM.
Turning to “RPQIWIHQGLQRLGAGLNAYYAR-NH2 [KL6-7_D3fA]”, the Kd is more than 1000 nM.
Take “RPQIWIHQGLQRLGDGLNAYKAR-NH2 [KL6-7_Y4eK]”: the Kd is more than 1000 nM.

A further experiment has as its target Mcl-1 (Homo sapiens, UniProt Q07820). The experiment in a line: Direct fluorescence anisotropy binding to Mcl-1.
In turn, “RPIIWIGQEISRVGDRENAYKAR-NH2 [BL6-22_Y4eK]” returned a Kd of approximately 2200 nM.
For the substance RPNIWLTQRLQRTGDGLNAYYAR-NH2 [KScomp], the Kd came out at 510 ± 190 nM.
The substance “RPQIWIHQGLQRLGAGLNAYYAR-NH2 [KL6-7_D3fA]” registered a Kd of more than 5000 nM.
Take “RPQIWIHQGLQRLGDGLNAYKAR-NH2 [KL6-7_Y4eK]”: the equilibrium dissociation constant (Kd) was approximately 7800 nM.

Another experiment has as its target KSBcl-2 (Human herpesvirus 8 type P, UniProt F5HGJ3). The experiment can be described thus: biochemical. Format: binding, Kaposi's sarcoma-associated herpesvirus (KSHV).
Turning to “RPIIWIGQEISRVGDRENAYKAR-NH2 [BL6-22_Y4eK]”, the Kd was 750 ± 300 nM.
RPNIWLTQRLQRTGDGLNAYYAR-NH2 [KScomp]: binding was characterised by a dissociation constant (Kd) of 13 ± 7.3 nM.
Take “RPQIWIHQGLQRLGAGLNAYYAR-NH2 [KL6-7_D3fA]”: binding was put at a Kd of 180 ± 80 nM.
Regarding “RPQIWIHQGLQRLGDGLNAYKAR-NH2 [KL6-7_Y4eK]”, the Kd was determined as 2.9 ± 1.3 nM.
